Test: Inhibition of bovine liver beta-glucosidase

**Q.** With OC[C@H]1NC[C@H](O)[C@@H](O)[C@@H]1O [(2R,3R,4R,5S)-2-(hydroxymethyl)piperidine-3,4,5-triol] as the compound, how does the IC50 read?
**A.** 210 µM

**Q.** For CCCC[C@H]1N[C@H](CO)[C@@H](O)[C@H](O)[C@H]1O [(2R,3S,4R,5R,6R)-2-butyl-6-(hydroxymethyl)piperidine-3,4,5-triol], which IC50 is on record?
**A.** 120 µM

Reference: BindingDB's records for doi:10.1021/jm301304e (University of Toyama, 2012)
